{
  "source": "patent US20250082654A1",
  "about": "“AZD3355 (LESOGABERAN) FOR TREATMENT AND PREVENTION OF NONALCOHOLIC STEATOHEPATITIS (NASH), LIVER FIBROSIS, AND OTHER LIVER CONDITIONS” (Icahn School of Medicine at Mount Sinai, priority 2018, published 2025)",
  "key": {"LX-2 cells": {"test_system": "LX-2 cells", "assay": "Cell apoptosis assay (caspase-3/7 activity)", "assay_type": "cell-based, human", "settings": "any dosage, 72 hours", "method": "(§1) At the beginning of each experiment, stellate cells (LX-2 cells or phHSCs) were serum-starved overnight in DMEM supplied with 0.1% BSA (without antibiotic) to synchronize metabolic activities of the cells. The cells were then exposed to different working concentration of either AZD3355 or sorafenib for 24, 48 and 72 hours.\n(§2) 5,000 LX-2 cells or 10,000 phHSCs were plated per well in 96-well clear bottom black plates. After overnight serum starvation in DMEM supplemented with 0.1% BSA (without antibiotic) the cells were exposed to AZD3355 at indicated concentration. For positive apoptotic control the cells were treated with 3% DMSO. After 72 hours of drug exposure the fluorescence signal of Caspase-3 and -7 activities were measured in Synergy HT (BioTek Instrument Inc., VT) spectrofluorometer by using Apo-ONE Homogeneous Caspase-3/7 Assay kit (Promega, WI) according to manufacturer's protocol."}, "phHSCs": {"test_system": "phHSCs", "assay": "Cell apoptosis assay (caspase-3/7 activity)", "assay_type": "cell-based, human", "settings": "any dosage, 72 hours", "method": "as §1, §2"}, "human liver slices": {"test_system": "human liver slices", "assay": "Liver slice assay, histopathology and H&E staining", "assay_type": "cell-based", "settings": "24 hours", "method": "Ten human liver pieces were collected from the Mount Sinai biorepository. The samples were prepared by coring the liver with 8 mm cylindrical coring tools. The liver cores were kept in ice cold WE medium, with GlutaMAX supplemental. A liver core was then mounted on a specimen plate with cyanoacrylate adhesive. Liver slices (approximately 200 μm in thickness) were placed in ice cold Krebs-Henesleit buffer in the presence of carbogen gas. There was then a 1 hour pre-incubation in WE GlutaMAX media with gentamicin in 95% O2 and 5% CO2 at 37° C. in a humidified rocker chamber to restore ATP levels.\nThe liver slices were then cultured in WE GlutaMAX media with gentamicin in 95% O2 and 5% CO2 at 37° C. in a humidified rocker chamber with slow 70 rpm rocking in the presence of AZD3355 in the amounts of 250 nM, 500 nM, 1000 nM, or 2000 nM, or sorafenib at 1000 nM., or control vehicle (saline water).\nAfter 24 hours, the tissue slices were harvested for either RNA isolation and quantitative PCR for measurements of Col1α1, TNFα, and IL-6 expression, or for histopathology and hematoxylin and eosin (H&E) staining as described in Example 3."}, "[1]": {"assay": "NASH mouse model, body weight", "assay_type": "in vivo", "settings": "male and female NASH model mice, 12-week treatment", "method": "The experimental protocol was reviewed and approved by the Institutional Animal Care and Use Committee (IACUC) at Icahn School of Medicine at Mount Sinai, NY. Male and Female C57BL/6J mice (age: 6 weeks; weight: 20-25 g) were purchased from Jackson Laboratories (Farmington, CT). Animals were housed in a 12 hours light—12 hours dark cycle in the animal facility at Icahn School of Medicine at Mount Sinai, NY and handled following guidelines for the care and use of laboratory animals. Male and female mice were maintained in separate cages.\nCarbon tetrachloride (CC14) was purchased from Sigma-Aldrich, MO. CC14 was freshly dissolved in corn oil at final concentration of 5% before injection. […]\nWestern diet containing 21.2% fat (42% Kcal), 41% sucrose and 1.25% cholesterol by weight was purchased from Envigo, WI (Teklad Custom diet Cat #TD.120528). […] During change of food and water we have been measured the amount of food and water intake and the data was collected.\nFour separate groups of mice were given either 0.5% methylcellulose (as Vehicle) or AZD3355 at 10 mg/kg (low dose) body weight of mice or 30 mg/kg (high dose) body weight of mice by twice daily (BID (5 days/week)) and OCA at 30 mg/kg body weight of mice by daily (QD (5 days/week)) through oral route for up to next 12 weeks (week 13 to week 24). […] All animals were closely monitored the health conditions and behavior."}, "NASH model mice": {"test_system": "NASH model mice", "assay": "NASH mouse model, histopathological scoring of liver sections", "assay_type": "in vivo", "settings": "for Hepatocyte ballooning ± SE: score 0-2; for Portal inflammation ± SE / Lobular Inflammation ± SE / Steatosis ± SE: score 0-3; for Fibrosis Stage ± SE: score 0-4; for NAFLD activity score (NAS) ± SE: score 0-8", "method": "Four separate groups of mice were given either 0.5% methylcellulose (as Vehicle) or AZD3355 at 10 mg/kg (low dose) body weight of mice or 30 mg/kg (high dose) body weight of mice by twice daily (BID (5 days/week)) and OCA at 30 mg/kg body weight of mice by daily (QD (5 days/week)) through oral route for up to next 12 weeks (week 13 to week 24). Them last group of mice were not given any drug or vehicle treatment, as No Tx—24 weeks and maintained in parallel with treatment/vehicle groups. Usually all doses were given at early morning and the second daily dose of AZD3355 at evening (10 hours of intervals). All animals were closely monitored the health conditions and behavior.\nA piece of tissue from large liver lobe was fixed in 10% Formalin Buffered (Astral Diagnostics Incorporated NJ) embedded in paraffin and microtome sectioning were performed. Slides containing tissue sections were baked at 60° C. for 1 hour and re-hydrated through xylene followed by graded ethanol (100%, 95%, 85% and 70%) into distilled water and processed in either Picrosirius red/Fast green or hematoxylin and eosin staining.\nA total of 2 sections/animal were stained with H&E staining performed by standard protocol.\nSteatosis, hepatocyte ballooning, lobular inflammation, portal inflammation and fibrosis of picroserious red/fast green and H&E stained liver section were scored according to the NASH Clinical Research Network (NASH CRN) scoring system in a blinded fashion by an expert hepato-pathologist in Icahn School of Medicine at Mount Sinai. NAFLD activity score (NAS) was calculated according to Brunt criteria and range from 0-8. NAS was calculated by the sum of scores of steatosis (0-3), hepatocyte ballooning (0-2) and lobular inflammation (0-3). NAS score of >5.0 strongly correlated with “definite-NASH” whereas <3 correlated with “not-NASH”. Fibrosis (0-4) or portal inflammation (0-3) scores were assessed separately and not included in NAS."}},
  "data": [
    {"smiles": "NC[C@@H](F)C[PH](=O)O", "note": "[AZD3355, [(2R)-3-amino-2-fluoropropyl] phosphinic acid]", "values": [
      {"measurement": "apoptotic effect (caspase-3/7 activity)", "setting": "LX-2 cells", "result": "no apoptotic effect"},
      {"measurement": "apoptotic effect (caspase-3/7 activity)", "setting": "phHSCs", "result": "no apoptotic effect"},
      {"measurement": "liver cells viability (H&E)", "setting": "human liver slices", "result": "did not change"},
      {"measurement": "body weight during treatment", "setting": "[1]", "result": "stable"},
      {"measurement": "Hepatocyte ballooning ± SE", "setting": "NASH model mice; ♀ Mice, 10 mg/kg, vehicle 1.2 ± 0.1", "result": "1.3 ± 0.1"},
      {"measurement": "Portal inflammation ± SE", "setting": "NASH model mice; ♀ Mice, 10 mg/kg, vehicle 1.6 ± 0.1", "result": "1.6 ± 0.1"},
      {"measurement": "Lobular Inflammation ± SE", "setting": "NASH model mice; ♀ Mice, 10 mg/kg, vehicle 2.3 ± 0.1", "result": "2.5 ± 0.1"},
      {"measurement": "Steatosis ± SE", "setting": "NASH model mice; ♀ Mice, 10 mg/kg, vehicle 2.5 ± 0.1", "result": "2.6 ± 0.1"},
      {"measurement": "Fibrosis Stage ± SE", "setting": "NASH model mice; ♀ Mice, 10 mg/kg, vehicle 3.0 ± 0.1", "result": "3.1 ± 0.1"},
      {"measurement": "NAFLD activity score (NAS) ± SE", "setting": "NASH model mice; ♀ Mice, 10 mg/kg, vehicle 6.1 ± 0.4", "result": "6.4 ± 0.4"},
      {"measurement": "Steatohepatitis Grade ± SE", "setting": "NASH model mice; ♀ Mice, 10 mg/kg, vehicle 1.8 ± 0.2", "result": "2.1 ± 0.2"},
      {"measurement": "Hepatocyte ballooning ± SE", "setting": "NASH model mice; ♀ Mice, 30 mg/kg twice daily, vehicle 1.2 ± 0.1", "result": "1.3 ± 0.1"},
      {"measurement": "Portal inflammation ± SE", "setting": "NASH model mice; ♀ Mice, 30 mg/kg twice daily, vehicle 1.6 ± 0.1", "result": "2.0 ± 0.0"},
      {"measurement": "Lobular Inflammation ± SE", "setting": "NASH model mice; ♀ Mice, 30 mg/kg twice daily, vehicle 2.3 ± 0.1", "result": "2.7 ± 0.1"},
      {"measurement": "Steatosis ± SE", "setting": "NASH model mice; ♀ Mice, 30 mg/kg twice daily, vehicle 2.5 ± 0.1", "result": "2.3 ± 0.1"},
      {"measurement": "Fibrosis Stage ± SE", "setting": "NASH model mice; ♀ Mice, 30 mg/kg twice daily, vehicle 3.0 ± 0.1", "result": "3.1 ± 0.1"},
      {"measurement": "NAFLD activity score (NAS) ± SE", "setting": "NASH model mice; ♀ Mice, 30 mg/kg twice daily, vehicle 6.1 ± 0.4", "result": "6.4 ± 0.3"},
      {"measurement": "Steatohepatitis Grade ± SE", "setting": "NASH model mice; ♀ Mice, 30 mg/kg twice daily, vehicle 1.8 ± 0.2", "result": "2.2 ± 0.2"},
      {"measurement": "Hepatocyte ballooning ± SE", "setting": "NASH model mice; ♂ Mice, 10 mg/kg, vehicle 1.7 ± 0.1", "result": "1.7 ± 0.1"},
      {"measurement": "Portal inflammation ± SE", "setting": "NASH model mice; ♂ Mice, 10 mg/kg, vehicle 2.0 ± 0.1", "result": "1.9 ± 0.0"},
      {"measurement": "Steatosis ± SE", "setting": "NASH model mice; ♂ Mice, 10 mg/kg, vehicle 2.7 ± 0.1", "result": "2.7 ± 0.1"},
      {"measurement": "Lobular Inflammation ± SE", "setting": "NASH model mice; ♂ Mice, 10 mg/kg, vehicle 2.8 ± 0.1", "result": "2.8 ± 0.1"},
      {"measurement": "Fibrosis Stage ± SE", "setting": "NASH model mice; ♂ Mice, 10 mg/kg, vehicle 3.3 ± 0.1", "result": "3.2 ± 0.1"},
      {"measurement": "NAFLD activity score (NAS) ± SE", "setting": "NASH model mice; ♂ Mice, 10 mg/kg, vehicle 7.2 ± 0.3", "result": "7.2 ± 0.3"},
      {"measurement": "Steatohepatitis Grade ± SE", "setting": "NASH model mice; ♂ Mice, 10 mg/kg, vehicle 2.6 ± 0.2", "result": "2.7 ± 0.1"},
      {"measurement": "Hepatocyte ballooning ± SE", "setting": "NASH model mice; ♂ Mice, 30 mg/kg twice daily, vehicle 1.7 ± 0.1", "result": "1.8 ± 0.1"},
      {"measurement": "Portal inflammation ± SE", "setting": "NASH model mice; ♂ Mice, 30 mg/kg twice daily, vehicle 2.0 ± 0.1", "result": "2.0 ± 0.2"},
      {"measurement": "Steatosis ± SE", "setting": "NASH model mice; ♂ Mice, 30 mg/kg twice daily, vehicle 2.7 ± 0.1", "result": "2.4 ± 0.1"},
      {"measurement": "Lobular Inflammation ± SE", "setting": "NASH model mice; ♂ Mice, 30 mg/kg twice daily, vehicle 2.8 ± 0.1", "result": "2.6 ± 0.2"},
      {"measurement": "Fibrosis Stage ± SE", "setting": "NASH model mice; ♂ Mice, 30 mg/kg twice daily, vehicle 3.3 ± 0.1", "result": "3.0 ± 0.0"},
      {"measurement": "NAFLD activity score (NAS) ± SE", "setting": "NASH model mice; ♂ Mice, 30 mg/kg twice daily, vehicle 7.2 ± 0.3", "result": "6.8 ± 0.5"},
      {"measurement": "Steatohepatitis Grade ± SE", "setting": "NASH model mice; ♂ Mice, 30 mg/kg twice daily, vehicle 2.6 ± 0.2", "result": "2.5 ± 0.2"}
    ]}
  ]
}
